Reference: patent US12349706B2, “Compositions and methods related to excipients and cannabinoid formulations” (Natural Extraction Systems, LLC, priority 2020, dated 2025)

Tests used:
Format in all cases: in vivo
Sabra mice [1] = assay: Zymosan-induced paw pain, Von Frey hair aesthesiometer; conditions: zymosan in left hind paw, 300 milligrams formulation (cannabinoid in propylene glycol, xylitol solid phase) in 15 milliliters water, oral gavage
Method: (§1) The activity of formulations set forth in this disclosure is assayed in Sabra mice. 300 milligrams of a formulation is combined with 15 milliliters of water and administered by oral gavage. Each formulation comprises a liquid phase that contains propylene glycol and a solid phase that contains xylitol. The liquid phase contains a cannabinoid selected from CBD, THC, Δ8-THC, CBG, CBDV, THCV, Δ8-THCV, CBGV, CBC, CBN, tetrahydrocannabiphorol, perrottetinene, nabilone, parahexyl, HUM-217, and HU-331, which is dissolved in the propylene glycol, and controls lack any cannabinoid.
(§2) Zymosan is injected into the left hind paws of each mouse to induce pain, inflammation, and tumor necrosis factor (“TNF”) signaling. Inflammatory paw swelling is measured with a caliper. Pain is measured with a Von Frey hair aesthesiometer. Plasma TNF is measured […].

Sabra mice [2] = assay: Zymosan-induced inflammatory paw swelling, measured with a caliper; conditions: zymosan in left hind paw, paw swelling by caliper, 300 milligrams formulation (cannabinoid in propylene glycol, xylitol solid phase) in 15 milliliters water, oral gavage
Method: as §1, §2

[3] = system: tumor necrosis factor (“TNF”) signaling; assay: Plasma TNF after zymosan injection, measured by HPLC; conditions: Sabra mice, zymosan in left hind paw, 300 milligrams formulation (cannabinoid in propylene glycol, xylitol solid phase) in 15 milliliters water, oral gavage
Method: as §1, §2

Structure (SMILES): CCCCCc1cc(O)c2c(c1)OC(C)(CCC=C(C)C)C=C2 (stereo not drawn) [CBC]
- reduction in pain relative to controls (Sabra mice [1]): no detectable effect
- reduction in inflammation relative to controls (Sabra mice [2]): no detectable effect
- reduction in TNF signaling relative to controls [3]: no detectable effect

Structure (SMILES): C=C(C)[C@@H]1CCC(C)=C[C@H]1c1c(O)cc(CCC)cc1O [CBDV]
- reduction in pain relative to controls (Sabra mice [1]): robust reduction
- reduction in inflammation relative to controls (Sabra mice [2]): robust reduction
- reduction in TNF signaling relative to controls [3]: robust reduction

Structure (SMILES): C=C(C)[C@@H]1CCC(C)=C[C@H]1c1c(O)cc(CCCCC)cc1O [CBD]
- reduction in pain relative to controls (Sabra mice [1]): robust reduction
- reduction in inflammation relative to controls (Sabra mice [2]): robust reduction
- reduction in TNF signaling relative to controls [3]: robust reduction

Structure (SMILES): CCCCCc1cc(O)c(C/C=C(\C)CCC=C(C)C)c(O)c1 [CBG]
- reduction in pain relative to controls (Sabra mice [1]): modest reduction
- reduction in inflammation relative to controls (Sabra mice [2]): modest reduction
- reduction in TNF signaling relative to controls [3]: modest reduction

Structure (SMILES): CCCCCc1cc(O)c2c(c1)OC(C)(C)c1ccc(C)cc1-2 [CBN]
- reduction in pain relative to controls (Sabra mice [1]): modest reduction
- reduction in inflammation relative to controls (Sabra mice [2]): modest reduction
- reduction in TNF signaling relative to controls [3]: modest reduction

Structure (SMILES): C=C(C)[C@@H]1CCC(C)=C[C@H]1C1=C(O)C(=O)C(CCCCC)=CC1=O [HU-331]
- reduction in pain relative to controls (Sabra mice [1]): robust reduction
- reduction in inflammation relative to controls (Sabra mice [2]): robust reduction
- reduction in TNF signaling relative to controls [3]: robust reduction

Structure (SMILES): CCCc1cc(O)c2c(c1)OC(C)(C)[C@@H]1CCC(C)=C[C@@H]21 [THCV]
- reduction in pain relative to controls (Sabra mice [1]): modest reduction
- reduction in inflammation relative to controls (Sabra mice [2]): modest reduction
- reduction in TNF signaling relative to controls [3]: modest reduction

Structure (SMILES): CCCCCc1cc(O)c2c(c1)OC(C)(C)[C@@H]1CCC(C)=C[C@@H]21 [THC]
- reduction in pain relative to controls (Sabra mice [1]): modest reduction
- reduction in inflammation relative to controls (Sabra mice [2]): modest reduction
- reduction in TNF signaling relative to controls [3]: modest reduction

Structure (SMILES): CCCCCCC(C)(C)c1cc(O)c2c(c1)OC(C)(C)C1CCC(=O)CC21 (stereo not drawn) [nabilone]
- reduction in pain relative to controls (Sabra mice [1]): modest reduction
- reduction in inflammation relative to controls (Sabra mice [2]): modest reduction
- reduction in TNF signaling relative to controls [3]: modest reduction

Structure (SMILES): CCCCCCc1cc(O)c2c(c1)OC(C)(C)C1=C2CC(C)CC1 (stereo not drawn) [parahexyl]
- reduction in pain relative to controls (Sabra mice [1]): modest reduction
- reduction in inflammation relative to controls (Sabra mice [2]): modest reduction
- reduction in TNF signaling relative to controls [3]: modest reduction

Structure (SMILES): CC1=C[C@H]2c3c(O)cc(CCc4ccccc4)cc3OC(C)(C)[C@H]2CC1 [perrottetinene]
- reduction in pain relative to controls (Sabra mice [1]): modest reduction
- reduction in inflammation relative to controls (Sabra mice [2]): modest reduction
- reduction in TNF signaling relative to controls [3]: modest reduction

Structure (SMILES): CCCCCCCc1cc(O)c2c(c1)OC(C)(C)[C@@H]1CCC(C)=C[C@@H]21 [tetrahydrocannabiphorol]
- reduction in pain relative to controls (Sabra mice [1]): modest reduction
- reduction in inflammation relative to controls (Sabra mice [2]): modest reduction
- reduction in TNF signaling relative to controls [3]: modest reduction

Structure (SMILES): CCCc1cc(O)c2c(c1)OC(C)(C)[C@@H]1CC=C(C)C[C@@H]21 [Δ8-THCV]
- reduction in pain relative to controls (Sabra mice [1]): modest reduction
- reduction in inflammation relative to controls (Sabra mice [2]): modest reduction
- reduction in TNF signaling relative to controls [3]: modest reduction

Structure (SMILES): CCCCCc1cc(O)c2c(c1)OC(C)(C)[C@@H]1CC=C(C)C[C@@H]21 [Δ8-THC]
- reduction in pain relative to controls (Sabra mice [1]): modest reduction
- reduction in inflammation relative to controls (Sabra mice [2]): modest reduction
- reduction in TNF signaling relative to controls [3]: modest reduction
